Measurements reported in US6737383B1, “Herbicidal oxadiazolidines” (priority 1999, dated 2004).

Experiments:
bedstraw = assay: Test B pre/postemergence bedstraw; assay type: in vivo, Galium aparine; conditions: for Plant response rating, Bedstraw: Postemergence
Summary of the method: (§1)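 Response is a visual 0-to-10 score relative to untreated plants, where 0 means no effect and 10 means complete control, taken twelve to sixteen days after application. Treatments went onto soil at planting and onto foliage of 1- to 4-leaf plants, using a surfactant-containing non-phytotoxic solvent.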

corn = assay: Test B pre/postemergence corn; assay type: in vivo, Zea mays
Summary of the method: as §1

morningglory = assay: Test B pre/postemergence morningglory; assay type: in vivo, Ipomoea hederacea
Summary of the method: as §1

sugar beet = assay: Test B pre/postemergence sugar beet; assay type: in vivo, Beta vulgaris; conditions: for Plant response rating, Sugarbeets: Postemergence
Summary of the method: as §1

velvetleaf = assay: Test B pre/postemergence velvetleaf; assay type: in vivo, Abutilon theophrasti; conditions: for Plant response rating, Velvetleaf: Postemergence
Summary of the method: as §1

soybean = assay: Test B pre/postemergence soybean; assay type: in vivo, Glycine max; conditions: for Plant response rating, Soybean: Postemergence
Summary of the method: as §1

crabgrass = assay: Test B pre/postemergence crabgrass; assay type: in vivo, Digitaria sanguinalis
Summary of the method: as §1

wild oat = assay: Test B pre/postemergence wild oat; assay type: in vivo, Avena fatua; conditions: for Plant response rating, Wild oats: Postemergence
Summary of the method: as §1

rape = assay: Test B pre/postemergence rape; assay type: in vivo, Brassica napus
Summary of the method: as §1

cocklebur = assay: Test B pre/postemergence cocklebur; assay type: in vivo, Xanthium strumarium
Summary of the method: as §1

pigweed = assay: Test B pre/postemergence pigweed; assay type: in vivo, Amaranthus retroflexus; conditions: for Plant response rating, Redroot pigweed: Postemergence
Summary of the method: as §1

wheat = assay: Test B pre/postemergence wheat; assay type: in vivo, Triticum aestivum; conditions: for Plant response rating, Wheat: Postemergence
Summary of the method: as §1

giant foxtail = assay: Test B pre/postemergence giant foxtail; assay type: in vivo, Setaria faberii
Summary of the method: as §1

purple nutsedge = assay: Test B pre/postemergence purple nutsedge; assay type: in vivo, Cyperus rotundus
Summary of the method: as §1

surinam grass = assay: Test B pre/postemergence surinam grass; assay type: in vivo, Brachiaria decumbens
Summary of the method: as §1

blackgrass = assay: Test B pre/postemergence blackgrass; assay type: in vivo, Alopecurus myosuroides
Summary of the method: as §1

[1] = Rate 125 g/ha, scale of 0 to 10 where 0 is no effect and 10 is complete control
[2] = Preemergence, Rate 62 g/ha, scale 0 to 10 (0 no effect, 10 complete control)
[3] = Preemergence, Rate 125 g/ha, scale of 0 to 10 where 0 is no effect and 10 is complete control
[4] = Preemergence, Rate 500 g/ha, scale of 0 to 10 where 0 is no effect and 10 is complete control
[5] = Rate 250 g/ha, scale of 0 to 10 where 0 is no effect and 10 is complete control
[6] = Postemergence, Rate 62 g/ha, scale of 0 to 10, 0 is no effect, 10 is complete control
[7] = Postemergence, Rate 125 g/ha, scale of 0 to 10 where 0 is no effect and 10 is complete control
[8] = Postemergence, Rate 500 g/ha, scale of 0 to 10 where 0 is no effect and 10 is complete control
[9] = Rate 250 g/ha, Postemergence, scale of 0 to 10 where 0 is no effect and 10 is complete control
[10] = Rate 500 g/ha, scale of 0 to 10 where 0 is no effect and 10 is complete control

## CCC=CCn1c(=O)on(C(=O)N(c2ccccc2)C(C)C)c1=O [Compound 582]
bedstraw; [1]
  Plant response rating, Bedstraw: 7
bedstraw; [2]
  Bedstraw plant response rating: 0
bedstraw; [3]
  Bedstraw plant response rating: 0
bedstraw; Preemergence, Rate 250 g/ha
  Bedstraw plant response rating (0 to 10 scale): 6
bedstraw; [4]
  Bedstraw plant response rating: 6
bedstraw; [5]
  Plant response rating, Bedstraw: 9
corn; [6]
  Corn plant response rating: 0
corn; [7]
  Plant response rating, Corn: 0
corn; [8]
  Plant response rating, Corn: 0
corn; [2]
  Corn plant response rating: 0
corn; [3]
  Corn plant response rating: 0
corn; Preemergence, Rate 250 g/ha
  Corn plant response rating (0 to 10 scale): 0
corn; [4]
  Corn plant response rating: 0
corn; [9]
  Plant response rating, Corn: 0
morningglory; [6]
  Morningglory plant response rating: 9
morningglory; [7]
  Plant response rating, Morningglory: 10
morningglory; [8]
  Plant response rating, Morningglory: 10
morningglory; [2]
  Morningglory plant response rating: 0
morningglory; [3]
  Morningglory plant response rating: 0
morningglory; Preemergence, Rate 250 g/ha
  Morningglory plant response rating (0 to 10 scale): 0
morningglory; [4]
  Morningglory plant response rating: 2
morningglory; [9]
  Plant response rating, Morningglory: 10
Sugar beet; [1]
  Plant response rating, Sugarbeets: 0
Sugar beet; [10]
  Plant response rating, Sugarbeets: 7
Sugar beet; [2]
  Sugarbeets plant response rating: 0
Sugar beet; [3]
  Sugarbeets plant response rating: 0
Sugar beet; Preemergence, Rate 250 g/ha
  Sugarbeets plant response rating (0 to 10 scale): 0
Sugar beet; [4]
  Sugarbeets plant response rating: 0
Sugar beet; [5]
  Plant response rating, Sugarbeets: 3
velvetleaf; [1]
  Plant response rating, Velvetleaf: 0
velvetleaf; [10]
  Plant response rating, Velvetleaf: 0
velvetleaf; [2]
  Velvetleaf plant response rating: 0
velvetleaf; [3]
  Velvetleaf plant response rating: 0
velvetleaf; Preemergence, Rate 250 g/ha
  Velvetleaf plant response rating (0 to 10 scale): 4
velvetleaf; [4]
  Velvetleaf plant response rating: 4
velvetleaf; [5]
  Plant response rating, Velvetleaf: 0
soybean; [1]
  Plant response rating, Soybean: 3
soybean; [10]
  Plant response rating, Soybean: 3
soybean; [2]
  Soybean plant response rating: 0
soybean; [3]
  Soybean plant response rating: 0
soybean; Preemergence, Rate 250 g/ha
  Soybean plant response rating (0 to 10 scale): 0
soybean; [4]
  Soybean plant response rating: 0
soybean; [5]
  Plant response rating, Soybean: 3
crabgrass; [6]
  Crabgrass plant response rating: 0
crabgrass; [7]
  Plant response rating, Crabgrass: 0
crabgrass; [8]
  Plant response rating, Crabgrass: 3
crabgrass; [2]
  Crabgrass plant response rating: 0
crabgrass; [3]
  Crabgrass plant response rating: 0
crabgrass; Preemergence, Rate 250 g/ha
  Crabgrass plant response rating (0 to 10 scale): 0
crabgrass; [4]
  Crabgrass plant response rating: 7
crabgrass; [9]
  Plant response rating, Crabgrass: 3
Wild oat; [1]
  Plant response rating, Wild oats: 0
Wild oat; [10]
  Plant response rating, Wild oats: 3
Wild oat; [2]
  Wild oats plant response rating: 0
Wild oat; [3]
  Wild oats plant response rating: 0
Wild oat; Preemergence, Rate 250 g/ha
  Wild oats plant response rating (0 to 10 scale): 0
Wild oat; [4]
  Wild oats plant response rating: 0
Wild oat; [5]
  Plant response rating, Wild oats: 0
rape; [6]
  Rape plant response rating: 0
rape; [7]
  Plant response rating, Rape: 0
rape; [8]
  Plant response rating, Rape: 3
rape; [2]
  Rape plant response rating: 0
rape; [3]
  Rape plant response rating: 0
rape; Preemergence, Rate 250 g/ha
  Rape plant response rating (0 to 10 scale): 0
rape; [4]
  Rape plant response rating: 3
rape; [9]
  Plant response rating, Rape: 0
cocklebur; [6]
  Cocklebur plant response rating: 0
cocklebur; [7]
  Plant response rating, Cocklebur: 0
cocklebur; [8]
  Plant response rating, Cocklebur: 4
cocklebur; [2]
  Cocklebur plant response rating: 0
cocklebur; [3]
  Cocklebur plant response rating: 0
cocklebur; Preemergence, Rate 250 g/ha
  Cocklebur plant response rating (0 to 10 scale): 0
cocklebur; [4]
  Cocklebur plant response rating: 0
cocklebur; [9]
  Plant response rating, Cocklebur: 2
pigweed; [1]
  Plant response rating, Redroot pigweed: 0
pigweed; [10]
  Plant response rating, Redroot pigweed: 7
pigweed; [2]
  Redroot pigweed plant response rating: 0
pigweed; [3]
  Redroot pigweed plant response rating: 0
pigweed; Preemergence, Rate 250 g/ha
  Redroot pigweed plant response rating (0 to 10 scale): 4
pigweed; [4]
  Redroot pigweed plant response rating: 9
pigweed; [5]
  Plant response rating, Redroot pigweed: 7
wheat; [1]
  Plant response rating, Wheat: 0
wheat; [10]
  Plant response rating, Wheat: 0
wheat; [2]
  Wheat plant response rating: 0
wheat; [3]
  Wheat plant response rating: 0
wheat; Preemergence, Rate 250 g/ha
  Wheat plant response rating (0 to 10 scale): 0
wheat; [4]
  Wheat plant response rating: 0
wheat; [5]
  Plant response rating, Wheat: 0
Giant foxtail; [6]
  Giant foxtail plant response rating: 3
Giant foxtail; [7]
  Plant response rating, Giant foxtail: 4
Giant foxtail; [8]
  Plant response rating, Giant foxtail: 7
Giant foxtail; [2]
  Giant foxtail plant response rating: 0
Giant foxtail; [3]
  Giant foxtail plant response rating: 5
Giant foxtail; Preemergence, Rate 250 g/ha
  Giant foxtail plant response rating (0 to 10 scale): 8
Giant foxtail; [4]
  Giant foxtail plant response rating: 8
Giant foxtail; [9]
  Plant response rating, Giant foxtail: 9
Purple nutsedge; [6]
  Nutsedge plant response rating: 0
Purple nutsedge; [7]
  Plant response rating, Nutsedge: 0
Purple nutsedge; [8]
  Plant response rating, Nutsedge: 0
Purple nutsedge; [2]
  Nutsedge plant response rating: 0
Purple nutsedge; [3]
  Nutsedge plant response rating: 0
Purple nutsedge; Preemergence, Rate 250 g/ha
  Nutsedge plant response rating (0 to 10 scale): 0
Purple nutsedge; [4]
  Nutsedge plant response rating: 0
Surinam grass; [6]
  B. signalgrass plant response rating: 0
Surinam grass; [7]
  Plant response rating, B. signalgrass: 0
Surinam grass; [8]
  Plant response rating, B. signalgrass: 3
Surinam grass; [2]
  B. signalgrass plant response rating: 0
Surinam grass; [3]
  B. signalgrass plant response rating: 0
Surinam grass; Preemergence, Rate 250 g/ha
  B. signalgrass plant response rating (0 to 10 scale, 0 is no effect, 10 is complete control): 2
Surinam grass; [4]
  B. signalgrass plant response rating: 4
Surinam grass; [9]
  Plant response rating, B. signalgrass: 0
blackgrass; [6]
  Blackgrass plant response rating: 3
blackgrass; [8]
  Plant response rating, Blackgrass: 7
blackgrass; [2]
  Blackgrass plant response rating: 0
blackgrass; [3]
  Blackgrass plant response rating: 0
blackgrass; Preemergence, Rate 250 g/ha
  Blackgrass plant response rating (0 to 10 scale): 0
blackgrass; [4]
  Blackgrass plant response rating: 0
blackgrass; [9]
  Plant response rating, Blackgrass: 3
